{
  "source": "patent US5559158A",
  "about": "“Pharmaceutical composition” (Abbott Laboratories, priority 1994, dated 1996)",
  "key": {"HIV-1 protease": {"tested_on": "HIV-1 protease", "experiment": "Inhibition of HIV-1 protease", "format": "biochemical", "settings": "in words"}, "HIV-2 protease": {"tested_on": "HIV-2 protease", "experiment": "Inhibition of HIV-2 protease", "format": "biochemical", "settings": "in words"}, "[1]": {"experiment": "Oral bioavailability study in dogs", "design": "species or system beagle dogs", "settings": "dog, in vivo, 5 mg/kg, summary statement, dose not stated", "description": "Each dog received a single solid dosage form corresponding to a 5 mg/kg dose of the drug."}, "[2]": {"settings": "listed as compound of formula II"}},
  "data": [
    {"smiles": "CC(C)c1nc(CN(C)C(=O)NC(C(=O)NC(Cc2ccccc2)CC(O)C(Cc2ccccc2)NC(=O)OCc2cncs2)C(C)C)cs1", "note": "(stereo not shown) [Compound II]", "values": [
      {"measurement": "inhibition of HIV-1 protease", "setting": "HIV-1 protease", "value": "inhibitors"},
      {"measurement": "inhibition of HIV-1 protease", "setting": "HIV-1 protease; [2]", "value": "especially effective"},
      {"measurement": "inhibition of HIV-2 protease", "setting": "HIV-2 protease", "value": "inhibitors"},
      {"measurement": "inhibition of HIV-2 protease", "setting": "HIV-2 protease; [2]", "value": "especially effective"}
    ]},
    {"smiles": "CC(C)c1nc(CN(C)C(=O)NC(C(=O)N[C@@H](Cc2ccccc2)C[C@H](O)[C@H](Cc2ccccc2)NC(=O)OCc2cncs2)C(C)C)cs1", "note": "(stereo partly drawn) [Compound III, (2S,3S,5S)-5-(N-(N-((N-Methyl-N-((2-isopropyl-4-thiazolyl)methyl)-amino)carbonyl)valinyl)amino)-2-(N((5-thiazolyl)methoxycarbonyl)amino)-1,6-diphenyl-3-hydroxyhexane]", "values": [
      {"measurement": "inhibition of HIV-1 protease", "setting": "HIV-1 protease", "value": "inhibitors"},
      {"measurement": "inhibition of HIV-2 protease", "setting": "HIV-2 protease", "value": "inhibitors"},
      {"measurement": "bioavailability", "setting": "[1]", "value": "< 2", "unit": "%"}
    ]}
  ]
}
